# Data published in patent publication US20250248979A1, “NOVEL GPX4 INHIBITORS AND USES THEREOF” (THE TRUSTEES OF COLUMBIA UNIVERSITY IN THE CITY OF NEW YORK, priority 2022, published 2025).
# Molecular target: T1, GPX4 (Homo sapiens, UniProt P36969)
# T1 sequence (P36969 1-170 isoform P36969-2): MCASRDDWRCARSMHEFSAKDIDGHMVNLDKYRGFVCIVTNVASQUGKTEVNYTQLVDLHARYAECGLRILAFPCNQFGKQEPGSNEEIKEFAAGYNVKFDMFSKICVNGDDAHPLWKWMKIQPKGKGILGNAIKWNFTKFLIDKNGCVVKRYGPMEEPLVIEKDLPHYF
# Experiment: GPX4 activity assay in cell lysates (NADPH-coupled)
# Type: biochemical
# Set-up: endogenous in cells; host or cells: A-673 cell lysate
# Details: not given
# Procedure: Determination of GPX4 activity in cell lysates was performed as previously described by Roveri et al. 1994 with minor modifications. Briefly, the assay measures the consumption of NADPH, which has a characteristic absorbance at 340 nm, over time as a proxy for GPX4 activity. The rationale for this is that as GPX4 reduces phospholipid hydroperoxides, it oxidizes glutathione, which is then regenerated by glutathione reductase at the expense of NADPH. NADPH is added to the assay in excess such that the reduction of oxidized glutathione is not the rate-limiting reaction in the assay. Thus, the resulting reduction in NADPH absorbance over time reflects GPX4 activity.
# The GPX4-specific substrate phosphatidylcholine hydroperoxide (PCOOH) was prepared by enzymatic hydroperoxidation. Specifically, 0.3 mM phosphatidylcholines (Sigma-Aldrich) were incubated with 0.7 mg soybean lipoxidase type IV (Sigma-Aldrich) in 22 mL of 0.2 M Tris-HCl pH 8.8 with 3 mM sodium deoxycholate at room temperature under continuous stirring for 30 minutes. A Sep-Pak C18 cartridge (Waters-Millipore) was pre-washed with methanol and equilibrated with water, then the substrate mixture was loaded. The column was washed with 10 volumes of water and PCOOH was eluted with 2 mL of methanol.
# To prepare the cell lysate containing native GPX4, A-673 cells were cultured with 20 nM sodium selenite to confluency over two days then harvested and washed with cold PBS. Cells were then resuspended at 10 million cells per 1 mL LCW lysis buffer (0.5% peroxide-free Triton X-100, 0.5% sodium deoxycholate salt, 150 mM NaCl, 20 mM Tris-HCl pH 7.5, 10 mM EDTA, 30 mM sodium pyrophosphate, and complete protease inhibitor cocktail), vortexed for 30 seconds, and incubated on ice for 15 minutes. After lysis, the lysates were centrifuged at 14,000×g and 4° C. for 15 minutes. The supernatants were transferred to new pre-chilled tube and the debris pellet was discarded. The protein concentration in the lysate was determined for normalization using the BCA Protein Assay Kit (Pierce).
# To measure GPX4 activity, 50 μL of cell lysate was combined with 200 μL activity assay buffer (0.1% Triton X-100, 100 mM Tris-HCl pH 8.0, 10 mM sodium azide, 5 mM EDTA, 0.6 IU/mL glutathione reductase, 0.5 mM NADPH and 3 mM GSH) and compounds of interest in a clear 96-well plate and incubated at 37° C. for 45 minutes. Compounds were dissolved in DMSO. All conditions were tested in triplicate. PCOOH substrate was added to the mixture to initiate GPX4 activity just before reading the plate. The absorbance of NADPH at 340 nm was monitored kinetically over time for 25 minutes. Buffer-only controls and controls without substrate containing only the methanol vehicle were performed to assess background and baseline signal. GPX4 activity was calculated as previously reported by Stolwijk et al. 2020 and results were analyzed in GraphPad Prism 9.
row,SMILES,"GPX4 inhibitory activity, result in words"
1,CC(C)(COC(=O)CCl)NC(=O)c1n[nH]c2cc(-c3ccc(N4CCOCC4)c(Cl)c3)ccc12 [QW-583],slight loss of inhibitory activity

# Same assay, conditions: 2.5 μM
row,SMILES,GPX4% inhibition at 2.5 μM [%]
1,CCOc1ccc(-c2ccc3c(C(=O)NCC(C)(C)OC(=O)CCl)nn(C)c3c2)cc1Cl [QW-782],−1.0 ± 32.8
2,CC(C)Oc1c(Cl)cc(-c2ccc3c(C(=O)NC(C)(C)COC(=O)CCl)nn(C)c3c2)cc1Cl [QW-820],71.4 ± 6.9
3,Cn1nc(C(=O)NC(C)(C)COC(=O)CCl)c2ccc(-c3ccc(Br)cc3)cc21 [QW-603],45.5 ± 4.4
4,CC(C)Oc1ccc(-c2ccc3c(C(=O)NC(C)(C)CNC(=O)CCl)nn(C)c3c2)cc1Cl [QW-635],14.0 ± 15.4
5,Cn1nc(-n2cc(C(C)(C)CNC(=O)CCl)nn2)c2ccc(-c3ccc(N4CCOCC4)c(Cl)c3)cc21 [QW-793],−53.4 ± 17.0
6,CC(C)Oc1c(Cl)cc(-c2ccc3c(C(=O)NC(C)(C)C(C)(C)OC(=O)CCl)nn(C)c3c2)cc1Cl [QW-808],36.3 ± 16.1
7,COc1ccc(-c2ccc3c(-c4nnc(C(C)(OC(=O)CCl)C(F)(F)F)o4)nn(C)c3c2)cc1Cl (centres unmarked) [QW-699],2.4 ± 17.3
8,CC=CC(=O)OCC(C)(C)NC(=O)c1nn(C)c2cc(-c3ccc(OC)c(Cl)c3)ccc12 [QW-644],31.4 ± 18.5
9,COc1ccc(-c2ccc3c(-n4cc(C(C)(C)COC(=O)CCl)nn4)nn(C)c3c2)c(Cl)c1Cl [QW-829],68.7 ± 3.6
10,Cn1nc(-c2nnc(C(C)(OC(=O)CCl)C(F)(F)F)o2)c2ccc(-c3ccc(N4CCOCC4)c(Cl)c3)cc21 (centres unmarked) [QW-700],−2.2 ± 5.0
11,COc1ccc(-c2ccc3c(C(=O)NC(C)(C)COC(=O)CBr)nn(C)c3c2)cc1Cl [QW-608],72.2 ± 5.9

# Same assay, conditions: 2.5 μM; 4th generation
row,SMILES,GPX4% inhibition at 2.5 μM [%]
1,CCOc1ccc(-c2ccc3c(C(=O)NC(C)(C)COC(=O)CCl)nn(Cc4ccc(Cl)cc4)c3c2)cc1Cl [QW-840],80.1 ± 11.8

# Same assay, conditions: 2.5 μM; generation 2
row,SMILES,GPX4% inhibition at 2.5 μM [%]
1,Cn1nc(C(=O)N2CCC(OC(=O)CCl)C2(C)C)c2ccc(Br)cc21 (centres unmarked) [QW-673],41.9 ± 63.4
2,Cn1nc(-c2nnc(C(C)(OC(=O)CCl)C(F)(F)F)o2)c2ccc(Br)cc21 (centres unmarked) [QW-694],10.6 ± 5.8
3,C=C(CN1CCOCC1)C(=O)NCC(C)(C)NC(=O)c1nn(C)c2cc(Br)ccc12 [QW-648],15.8 ± 24.7

# Same assay, conditions: 5 μM
row,SMILES,GPX4% inhibition at 5 μM [%]
1,Cn1nc(C(=O)NC(C)(C)COC(=O)CCl)c2ccc(-c3cccc4[nH]ccc34)cc21 [QW-467],−10.3 ± 4.3
2,COc1ccc(-c2ccc3c(c2)c(C(=O)NC(C)(C)COC(=O)CCl)nn3C)cc1Cl [QW-584],9.5 ± 5.1
3,COc1ccc(-c2ccc3c(C(=O)NC(C)(C)COC(=O)CCl)nn(C)c3c2)cc1F [QW-567],54.7 ± 3.4
4,Cn1nc(C(=O)NC(C)(C)COC(=O)CCl)c2ccc(-c3ccc(C=O)cc3)cc21 [QW-591],69.4 ± 3.3
5,COc1ccc(F)c(-c2ccc3c(C(=O)NC(C)(C)COC(=O)CCl)nn(C)c3c2)c1 [QW-588],59.5 ± 5.7
6,COC(=O)C=Cc1ccc(-c2ccc3c(C(=O)NC(C)(C)COC(=O)CCl)nn(C)c3c2)cc1 [QW-574],72.8 ± 7.7
7,CC(C)Oc1ccc(Cl)cc1-c1ccc2c(C(=O)NC(C)(C)COC(=O)CCl)nn(C)c2c1 [QW-495],22.9 ± 7.5
8,Cn1nc(C(=O)NC(C)(C)COC(=O)CCl)c2ccc(-c3ccc(F)c(F)c3)cc21 [QW-500],57.5 ± 5.3
9,Cn1nc(C(=O)NC(C)(C)COC(=O)CCl)c2ccc(-c3coc4ccccc34)cc21 [QW-535],62.2 ± 5.1
10,Cn1nc(C(=O)NC(C)(C)COC(=O)CCl)c2ccc(-c3ccc(CN4CCOCC4)cc3)cc21 [QW-539],49.6 ± 4.5
11,Cn1nc(C(=O)NC(C)(C)COC(=O)CCl)c2ccc(-c3ccc(N4CCOCC4)cc3)cc21 [QW-547],72.0 ± 0.4
12,Cn1nc(C(=O)NC(C)(C)COC(=O)CCl)c2ccc(-c3ccoc3)cc21 [QW-451],37.7 ± 4.1
13,Cn1nc(C(=O)NC(C)(C)COC(=O)CCl)c2cc(-c3ccc(N4CCOCC4)c(Cl)c3)ccc21 [QW-585],23.3 ± 5.2
14,COc1cc(-c2ccc3c(C(=O)NC(C)(C)COC(=O)CCl)nn(C)c3c2)cc(OC)c1OC [QW-479],59.6 ± 6.8
15,CC(C)(COC(=O)CCl)NC(=O)c1n[nH]c2cc(-c3ccc(N4CCOCC4)c(Cl)c3)ccc12 [QW-583],70.9 ± 6.7
16,Cn1nc(C(=O)NC(C)(C)COC(=O)CCl)c2ccc(-c3ccc(COC(=O)CCl)cc3)cc21 [QW-513],50.1 ± 2.4
17,Cn1nc(C(=O)NC(C)(C)COC(=O)CCl)c2ccc(-c3ccccc3Cl)cc21 [QW-492],45.7 ± 4.9
18,COc1ccc(Cl)cc1-c1ccc2c(C(=O)NC(C)(C)COC(=O)CCl)nn(C)c2c1 [QW-590],53.5 ± 6.3
19,Cn1nc(C(=O)NC(C)(C)COC(=O)CCl)c2ccc(-c3cccc(F)c3)cc21 [QW-493],77.1 ± 10.4

# Same assay, conditions: 5 μM; generation 2
row,SMILES,GPX4% inhibition at 5 μM [%]
1,Cn1nc(C(=O)NCCCCCCOC(=O)CCl)c2ccc(Br)cc21 [QW-520],−9.8 ± 6.7
2,Cn1nc(C(=O)NC(C)(C)COC(=O)C#C[Si](C)(C)C)c2ccc(Br)cc21 [QW-418],−5.6 ± 5.1
3,Cn1nc(C(=O)NC(C)(C)CC(O)S(=O)(=O)[O-])c2ccccc21.[Na+] (centres unmarked) [QW-394],4.5 ± 17.8
4,Cn1nc(C(=O)NCCCCCC(O)S(=O)(=O)[O-])c2ccc(Br)cc21.[Na+] (centres unmarked) [QW-517],−10.7 ± 7.8
5,C#CC(=O)OCC(C)(C)NC(=O)c1nn(C)c2cc(Br)ccc12 [QW-420],−10.9 ± 8.0

# Same assay, conditions: 20 μM; generation 2
row,SMILES,GPX4% inhibition at 20 (μM) [%]
1,Cc1onc(C(=O)N2CCN(C(=O)c3nn(C)c4ccccc34)CC2)c1[N+](=O)[O-] [QW-371],2.9 ± 2.2
2,CC(C)(COC(=O)CCl)NC(=O)c1ncn2ccccc12 [QW-391],5.3 ± 8.5
3,CC(C)(COC(=O)CCl)NC(=O)c1n[nH]c2ncccc12 [QW-390],4.0 ± 3.9

# Same assay, conditions: 200 μM; generation 1; mean ± s.d., n = 3
row,SMILES,GPX4% inhibition at 200 (μM) [%]
1,C=CC(=O)OCC(C)(C)NC(=O)c1cc2ccccc2[nH]1 [QW-166],1.8 ± 8.0
2,CC(C)(COC(=O)CCl)NC(=O)Cc1cc2ccccc2[nH]1 [QW-265],61.2 ± 11.3
3,Cc1onc(C(=O)OCC(C)(C)NC(=O)c2ccc[nH]2)c1[N+](=O)[O-] [QW-293],−13.1 ± 14.6
4,C=CC(=O)OCC(C)(C)NC(=O)c1cccs1 [QW-261],23.2 ± 17.0
5,CC(C)(COC(=O)CCl)NC(=O)CCc1cc2ccccc2[nH]1 [QW-270],65.5 ± 1.6
6,C=CC(=O)OCC(C)(C)NC(=O)c1cc2ccc(Br)cc2[nH]1 [QW-169],14.0 ± 8.6
7,COc1ccc2cc(C(=O)NCC(C)(C)COC(=O)CCl)[nH]c2c1 [QW-302],68.9 ± 1.8
8,CC(C)(COC(=O)CCl)NC(=O)c1cc2cc(F)ccc2[nH]1 [QW-338],42.6 ± 7.0
9,Cn1c(C(=O)NC(C)(C)COC(=O)CCl)cc2ccc(Br)cc21 [QW-321],90.3 ± 4.8
10,CC(C)(COC(=O)CBr)NC(=O)CCc1cc2ccccc2[nH]1 [QW-271],40.2 ± 5.2
11,Cc1onc(C(=O)OCC(C)(C)NC(=O)c2cc3ccccc3s2)c1[N+](=O)[O-] [QW-277],12.4 ± 20.1
12,C=CC(=O)OCC(C)(C)NC(=O)Cc1cc2ccccc2[nH]1 [QW-267],14.7 ± 5.7

# Same assay, conditions: 200 μM; generation 2
row,SMILES,GPX4% inhibition at 200 (μM) [%]
1,CC(C)(COC(=O)CCl)NC(=O)c1n[nH]c2ccccc12 [QW-296],83.1 ± 21.9
2,C=CC(=O)OCC(C)(C)NC(=O)c1nn(C)c2ccccc12 [QW-366],−7.3 ± 0.5

# Same assay, conditions: 200 μM; mean ± s.d., n = 3
row,SMILES,GPX4% inhibition at 200 (μM) [%]
1,O=C(c1cc2cc(Cl)ccc2[nH]1)n1ccnc1 [QW-002],18.7 ± 15.8
2,O=C(c1c[nH]c2ccccc12)n1ccnc1 [QW-058],37.8 ± 0.9
